Assay results published in patent publication US10077464B2, “Micro-organism detection medium comprising at least one alkyl(thio)glycoside” (Biomérieux, priority 2012, dated 2018).

Experiments:
[1] = tested on: Microorganisms of the genus Salmonella; assay: Detection of salmonellae, all strains of Example 1; type: cell-based; conditions: alkylglycoside in place of Tween 20, Example 1
Description: A stock solution of the enzyme substrate 5-bromo-6-chloro-3-indoxyl caprylate (magenta-C8) is made in a DMSO-type solvent. A volume of this stock solution which makes it possible to obtain a final substrate concentration of 360 mg/L is then added into flasks respectively containing Tween 20 (final concentration 6 g/L), n-octyl-β-D-glucopyranoside (OG) to final concentrations of 0.7, 2 and 6 g/L, and n-dodecyl-β-D-maltoside (DM) to the same concentrations. The different solutions are agitated and the volumes are introduced into supercooled agar media (chromID® Salmonella media).
Microorganisms of the genus Salmonella from the Applicant's collection were seeded on each of the aforementioned media in accordance with the three-dial technique from bacterial suspensions calibrated to 0.5 McF. The strains were selected for their low to average expression of esterase activity, giving low to average violet coloration intensities on the chromID® Salmonella medium marketed by bioMérieux (under the references 43621 and 43629).
The dishes were incubated for 24 h at 37° C. Then the colonies which formed were examined visually after 24 h of incubation. The coloration intensities were recorded.

[2] = tested on: P. aeruginosa and A. baumannii; assay: Detection of P. aeruginosa and A. baumannii, all strains of Example 2; type: cell-based
Description: Two stock solutions at 25 g/L of ALDOL™ 470-nonanoate (ALDOL 470-C9, developed by Biosynth AG, Rietlisstrasse 4,9422 Staad, Switzerland) and of ALDOL™ 495-nonanoate (ALDOL 495-C9, also developed by Biosynth AG, Rietlisstrasse 4,9422 Staad, Switzerland) are made in a DMSO-type organic solvent. Then a volume corresponding to a final concentration of enzyme substrates of 200 mg/L is added into flasks containing respectively: Tween 20 (final concentration in the medium of 6 g/L), and DM (final concentrations of 0.7, 2 and 6 g/L). The different flasks are vigorously agitated, then all of the contents are added into the supercooled agar media: TSA (trypticase soy agar) base.
Bacteria from the Applicant's collection were seeded on each of the aforementioned media in accordance with the three-dial technique from bacterial suspensions calibrated to 0.5 McF. The dishes were incubated for 24 h at 37° C. and the colonies formed were analysed visually. Thus, the colorations and the coloration intensities were recorded.

CCCCCCCCO[C@@H]1O[C@H](CO)[C@@H](O)[C@H](O)[C@H]1O [OG, n-octyl-β-D-glucopyranoside]
Esterase activity detection sensitivity in Salmonella [1]: improve the esterase activity detection sensitivity in Salmonella

CCCCCCCCCCCCO[C@@H]1O[C@H](CO)[C@@H](O[C@H]2O[C@H](CO)[C@@H](O)[C@H](O)[C@H]2O)[C@H](O)[C@H]1O [DM, n-dodecyl-β-D-maltoside]
Esterase activity detection sensitivity in Salmonella [1]: improve the esterase activity detection sensitivity in Salmonella
Detection of the strains tested ([2]; replacement of the Tween 20 at 6 g/L by DM at the same concentration, whatever the enzyme substrate): detect all of the strains tested
Detection of the esterase activity of the microorganisms ([2]; substitution of Tween 20 by DM, Example 2): improves the detection of the esterase activity of the microorganisms
